Legend:
iNOS and COX-2 [1] = assay: iNOS and COX-2 immunoblotting in LPS-stimulated RAW264.7 cells; type: cell-based, mouse; conditions: RAW264.7, 3.33, 10, or 30 μM, LPS 60 ng/ml 24 hours, FIG. 6A
Method: To confirm an oxidative stress suppression effect, the expression levels of iNOS and COX-2 were confirmed.
To this end, the RAW264.7 cell line, which is a mouse macrophage cell line, was purchased from the Korea Cell Line Bank (KCLB, Korea) and used, and cultured in a DMEM medium (Corning, MD, USA) supplemented with 10% fetal bovine serum (Corning, MD, USA), 100 U/mL of penicillin (Corning, MD, USA), and 100 100 μg/mL of streptomycin (Corning, MD, USA) at 37° C. in a 5% CO2 incubator.
After 1 hour, the cells were stimulated by treatment with 60 ng/ml of LPS, and further cultured for 24 hours. The cells were disrupted by adding a RIPA buffer containing a protease inhibitor cocktail (Thermo Fisher Scientific) and centrifuged at 14,000 rpm for 15 minutes at 4° C. to obtain a cell extract. Equal amounts of the cell extract were loaded, and proteins were separated through SDS-PAGE and then transferred to a PVDF film. The protein-transferred membrane was blocked using skim milk, incubated with a primary antibody for 3 hours at room temperature, and then incubated with an HRP-conjugated secondary antibody for 1 hour at room temperature.
The resulting product was washed with TBS-T three times between steps. […]

iNOS and COX-2 [2] = assay: iNOS and COX-2 immunoblotting in LPS-stimulated BV-2 cells; type: cell-based, mouse; conditions: BV-2, 30, 10, or 3.33 μM, LPS 1 μg/mL 24 hours, FIG. 6C
Method: To further confirm the oxidative stress suppression effect, the content of nitrite released due to an inflammatory response and the expression levels of iNOS, which is an enzyme that produces nitric oxide, and COX-2, which is cyclooxygenase-2, were determined in mouse microglial cells (BV-2, ATCC, Manassas, VA, USA).
To determine the content of nitrite and the protein expression levels of iNOS and COX-2, BV-2 was seeded in a 12-well plate (Corning, MD, USA) at 1.5×10^5 cells/well, and cultured using a DMEM medium (Corning, MD, USA) containing 10% fetal bovine serum (Corning, MD, USA) and 100 U/mL of penicillin/streptomycin (Corning, MD, USA) at 37° C. in a 5% CO2 incubator for one day for stabilization. […] 1 μg/mL of LPS (Sigma, USA) was added to all experimental groups excluding the non-inflammation-induced group and allowed to react at 37° C. in a 5% CO2 incubator for 24 hours.
The cells from which the cell culture medium was removed were disrupted by adding a RIPA buffer containing a protease inhibitor cocktail (Thermo Fisher Scientific), and centrifuged at 14,000 rpm for 15 minutes at 4° C. to obtain a cell extract. Equal amounts of the cell extract were loaded, and proteins were separated through SDS-PAGE and then transferred to a PVDF membrane. […]

Nc1cccc2c1C(=S)N(C1CCC(=O)NC1=O)C2=O (centres unmarked) [3-MP, 3-thiopomalidomide]
expression of iNOS and COX-2 (protein) (iNOS and COX-2 [1]): inhibits the expression of iNOS and COX-2 | expression of oxidative stress-associated proteins (iNOS and COX-2) (iNOS and COX-2 [2]): effectively reduced
